Tests used:
[1] = tested on: TAC-induced carotid artery dilation, remodeling, and inflammation; experiment: Pirfenidone in TAC model in WT and Aggf1+/- mice; type: in vivo; settings: for level of AGGF1 in the RCA / level of p-ERK1/2 in the RCA / level of p-Smad3 in the RCA: Western blot; for expansion of the right carotid artery / ratio of the flow velocity between right/left carotid: 3 weeks after TAC; for right carotid artery inflammation (MCP1 and CD68) / right carotid artery vascular remodeling (H&E staining, Sirius red and αSMA): after TAC
Description: The bar graphs below show the intimal thickness (1st graph), the adventitia thickness (2nd graph), the total carotid artery wall thickness (3rd graph), the medial cell density (4th graph), and the adventitia cell density (5th graph). […] The bar graphs on the right show the percentage of the positive area for the respective immunostaining quantification. […] The GAPDH serves as a loading control. *, P<0.05; **, P<0.01; ***, P<0.001; n=5/group for mouse studies, other sample sizes n=4/group. In FIG. 11, we used VSMC in vitro incubated with TGF-β1 and pirfenidone (PFD). […] In FIG. 12, we used Aggf1 systemic knockout mice for experiments.

[2] = tested on: VSMC cells; experiment: VSMC incubated in vitro with TGF-β1 or pirfenidone (PFD): Western blot, ELISA, RT-PCR; type: cell-based; settings: for level of AGGF1: Western blot, treatment 2 days and 4 days
Method: The VSMCs are starved for 12 hours prior to stimulation with TGF-β1. […] Normalized to β-actin. *, P<0.05; **, P<0.01; ***, P<0.001; n≥4/group for the study.
In FIG. 11, we used VSMC in vitro incubated with TGF-β1 and pirfenidone (PFD). […] In FIG. 12, we used Aggf1 systemic knockout mice for experiments.

[3] = Aggf1 heterozygous knockout mice (Aggf1+/-)

Compound | level of AGGF1 in the RCA ([1]; Aggf1+/- mice after TAC) | level of p-ERK1/2 in the RCA ([1]; Aggf1+/- mice after TAC) | level of p-Smad3 in the RCA ([1]; Aggf1+/- mice after TAC) | expansion of the right carotid artery [1, 3] | ratio of the flow velocity between right/left carotid [1, 3] | right carotid artery inflammation (MCP1 and CD68) [1, 3] | right carotid artery vascular remodeling (H&E staining, Sirius red and αSMA) [1, 3] | level of AGGF1 in the RCA ([1]; WT mice after TAC) | level of p-ERK1/2 in the RCA ([1]; WT mice after TAC) | level of p-Smad3 in the RCA ([1]; WT mice after TAC) | expansion of the right carotid artery ([1]; WT mice) | ratio of the flow velocity between right/left carotid ([1]; WT mice) | right carotid artery inflammation (MCP1 and CD68) ([1]; WT mice) | right carotid artery vascular remodeling (H&E staining, Sirius red and αSMA) ([1]; WT mice) | mRNA levels of Tgfb1 and Tgfb2 ([2]; RT-PCR, after 2 days) | synthesis of the mature TGF-β1 ([2]; Western blot 2 and 4 days, ELISA 2 days) | level of AGGF1 [2]
Cc1ccc(=O)n(-c2ccccc2)c1 [PFD, pirfenidone] | did not have this effect | did not have this effect | did not have this effect | did not possess such effects | did not possess such effects | did not possess such effects | did not possess such effects | significantly increase | reduce | reduce | significantly reduce | significantly reduce | significantly reduce | significantly reduce | no effect | inhibited | increased
TGF-β1: TGF-β1 used to stimulate VSMC cells in vitro | – | – | – | – | – | – | – | – | – | – | – | – | – | – | – | – | inhibit

Source: patent publication US20260209294A1, “USE OF RECOMBINANT PROTEIN IN PREPARING DRUG FOR INHIBITING ANEURYSM” (HUAZHONG UNIVERSITY OF SCIENCE AND TECHNOLOGY, priority 2022, published 2026)
